Activity calls are given as the source filed them. The calls are words filed in the database; no cut-off is given here. Some results are limits rather than exact numbers.

T1 sequence (Q02127 whole entry): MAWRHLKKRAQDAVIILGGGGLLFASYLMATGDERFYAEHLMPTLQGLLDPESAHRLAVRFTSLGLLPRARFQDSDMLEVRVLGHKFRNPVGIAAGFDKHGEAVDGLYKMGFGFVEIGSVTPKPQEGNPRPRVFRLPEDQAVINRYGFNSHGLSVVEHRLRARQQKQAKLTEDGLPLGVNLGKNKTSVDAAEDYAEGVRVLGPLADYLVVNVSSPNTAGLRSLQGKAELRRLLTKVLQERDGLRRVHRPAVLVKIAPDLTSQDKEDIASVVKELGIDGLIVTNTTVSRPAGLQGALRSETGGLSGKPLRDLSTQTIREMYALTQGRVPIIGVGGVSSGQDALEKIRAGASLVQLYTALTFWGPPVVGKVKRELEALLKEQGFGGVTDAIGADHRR

The first test addresses T1, Dihydroorotate dehydrogenase (quinone), mitochondrial (Homo sapiens, UniProt Q02127). Description: Inhibition of DHODH in human HEK-293 cells transfected with ISRE-luciferase reporter gene assessed as increase in IFN-alpha mediated cellular response at 6 to 178 uM after 24 hrs by luciferase reporter gene assay. Type of test: cell-based. As to conditions: HEK293, dose 6-178 µM. Background: In a reporter assay the amount or activity of a reporter protein is the signal.
For `CC1(c2ccccc2)OC(=O)c2c1ccn(C1CC1)c2=O` (stereo not given), the outcome was Active.

For a further test, the target named is T1, Dihydroorotate dehydrogenase (quinone), mitochondrial. In words: Inhibition of DHODH in human HEK-293 cells transfected with ISRE-luciferase reporter gene assessed as increase in IFN-alpha mediated cellular response after 24 hrs by luciferase reporter gene assay. As to conditions: read-out: EC50.
With `CC1(c2ccccc2)OC(=O)c2c1ccn(C1CC1)c2=O` (stereo not given), the EC50 was found to be 27 µM.

The same test, now with this note: read-out: pEC50 (converted).
Turning to `O=C1OC2(CCCC2)c2ccn(C3CC3)c(=O)c21`, the EC50 is 52.5 µM. `CC(C)n1ccc2c(c1=O)C(=O)OC21CCCCC1`: the EC50 was over 158 µM. For the compound `O=C1OC2(CCCCC2)c2ccn(C3CCC3)c(=O)c21`, the EC50 is over 158 µM. Same read-out and setting: with `CC1(C)OC(=O)c2c1ccn(C1CC1)c2=O` the figure was over 158 µM; with `CCC1(CC)OC(=O)c2c1ccn(C1CC1)c2=O`, over 158 µM.

Take `O=C1OC2(CCCCC2)c2ccnc(O)c21`: the EC50 was over 158 µM. The same measure, in the same setting: with `O=C1OC2(CCCCC2)c2ccn(CC3CC3)c(=O)c21` the figure was over 158 µM; with `O=C1OC2(CCCCC2)c2ccn(C3CCCCC3)c(=O)c21`, over 158 µM; with `O=C1OC2(CCCCC2)c2ccn(C3CCCC3)c(=O)c21`, over 158 µM. `CCC1(C)OC(=O)c2c1ccn(C1CC1)c2=O` (stereo not given): the EC50 was over 158 µM.

Consider `Cn1ccc2c(c1=O)C(=O)OC21CCCCC1`, for which the EC50 is over 158 µM.

For `CC1(C)OC(=O)c2c1ccnc2O`, the EC50 was over 158 µM. On the same count and under the same terms, with `CC1=C(C(=O)NC2CC2)C(=O)OC12CCCCC2` the figure was over 158 µM.
